From patent US8187823B2, “Modulation of neuroglia-derived BDNF in the treatment and prevention of pain” (Université Laval, priority 2004, dated 2012)

Columns and labels:
cultured microglia = assay: ELISA of BDNF protein in supernatant of cultured microglia; assay type: cell-based, rat; settings: ATP stimulation; TNP-ATP 10 μM; supernatant 5 hours after treatment
Protocol: Microglial cultures. Rat primary cultured microglia were prepared under standard conditions as described^2,21. In brief, mixed glial culture was prepared from neonatal Wistar rats and maintained for 10-16 days in DMEM medium with 10% fetal bovine serum. Microglia were separated from the primary culture by gentle shaking of the flask and replated on plastic dishes. The cells were removed from the dish surface using a cell scraper and collected in 100 μl of PBS; subsequently, the cell density of microglia was measured using a cell counter and the volume of PBS adjusted to give a final density of 1000 cells/10 μl. This method produces microglial cultures of >95% purity. For ATP-stimulation, the purified microglia were incubated with ATP (50 μM) for 1 hour. […]

[1] = tested on: rats with peripheral nerve injury; settings: literature (ref. 2), acting on P2X receptors in microglia; cited from earlier work
LI neurons [2] = assay: Eanion of LI neurons in spinal slices from PNI rats with bath-applied agents; assay type: cell-based, rat; settings: TNP-ATP 1 μM bath-applied, slices from allodynic rats two weeks after PNI
Protocol: (§1) Peripheral nerve injury was induced by surgically implanting a polyethylene cuff (2 mm in length, inner diameter 0.7 mm) around the sciatic nerve of adult male Sprague-Dawley rats^3,17. For sham surgery, which was used as a control, animals had all surgical procedures exempt that the cuff was not implanted. The 50% withdrawal threshold, or 50% paw withdrawal threshold, to mechanical stimulation was assessed^3,18. […] In animals with peripheral nerve injury induced in this model, there was microglial activation in the spinal cord ipsilateral to the nerve cuff, as indicated by increased labeling for the microglial activation marker OX-42 (FIGS. 5B and 5C).
(§2) Slice preparation. Parasagittal slices (300-350 μm) of spinal cord were prepared from adult (>50 days old) male rats as previously described^31. Slices were continually superfused (2-3 ml min^−1) with artificial cerebrospinal fluid (ACSF) containing (in mM): 126 NaCl, 26 NaHCO3, 10 glucose, 2.5 KCl, 2 CaCl2, 2 MgCl2, 1.25 NaH2PO4 (bubbled with 95% O2/5% CO2, pH ˜7.4).
Recordings. For perforated-patch recordings, the pipette tip was filled with a solution containing (in mM): 130 potassium methyl sulphate (KMeSO4), 5 CsCl, 2 MgCl2, 11 BAPTA, 1 CaCl2, 4 ATP, 0.4 GTP, 10 HEPES (˜pH 7.4). […]

naïve rats = assay: Paw withdrawal threshold (WD50) after intrathecal delivery to naïve rats; assay type: in vivo, rat; settings: for paw withdrawal threshold (WD50): intrathecal delivery to naïve/intact rats
Protocol: as §1
Microglial cultures. Rat primary cultured microglia were prepared under standard conditions as described^2,21. In brief, mixed glial culture was prepared from neonatal Wistar rats and maintained for 10-16 days in DMEM medium with 10% fetal bovine serum. Microglia were separated from the primary culture by gentle shaking of the flask and replated on plastic dishes. The cells were removed from the dish surface using a cell scraper and collected in 100 μl of PBS; subsequently, the cell density of microglia was measured using a cell counter and the volume of PBS adjusted to give a final density of 1000 cells/10 μl. This method produces microglial cultures of >95% purity. For ATP-stimulation, the purified microglia were incubated with ATP (50 μM) for 1 hour.
Intrathecal injections and ELISA. At least three days before drug administration, rats were anaesthetized with sodium pentobarbital (65 mg kg^−1), and a lumbar spinal catheter (PE-10 polyethylene tube) was inserted into the intrathecal space^22. On recovery from surgery, lower-body paralysis was induced through intrathecal lidocaine (2%, 30 μl) injection to confirm proper catheter localization. […] At the doses used, none of the compounds produced motor disturbances or sedation, as assessed by grasping, righting and placing reflexes and behavioural observations^23. […]

LI neurons [3] = assay: Eanion of LI neurons in spinal slices from naïve rats with bath-applied BDNF; assay type: cell-based, rat; settings: BDNF 50 ng/ml, >90 min
Protocol: as §2
Recordings. For perforated-patch recordings, the pipette tip was filled with a solution containing (in mM): 130 potassium methyl sulphate (KMeSO4), 5 CsCl, 2 MgCl2, 11 BAPTA, 1 CaCl2, 4 ATP, 0.4 GTP, 10 HEPES (˜pH 7.4). The pipette was back-filled with this same solution supplemented with 25 μg ml^−1 gramicidin D [gramicidin stock was at 10 mg ml^−1 in dimethylsulphoxide (DMSO)]. Recordings in this mode were selected when access resistance was stable between 25-45 MΩ. For whole-cell voltage-clamp recordings, pipettes were filled with the above solution lacking gramicidin D. GABA was applied locally for 10-50 ms by pressure ejection through a micro-pipette. Data acquisition and analysis of PSCs were performed as previously described^19; membrane potential measurements were corrected as previously described^20. […] All measurements are given as means±SEM, except where indicated. […]

Row | Molecule | release of BDNF from microglia in culture (cultured microglia) | nerve injury-induced tactile allodynia [1] | Eanion of LI neurons (LI neurons [2]) [mV] | paw withdrawal threshold (WD50) (naïve rats) | paw withdrawal threshold (WD50) (naïve rats; listed as recombinant human BDNF) | time to significant decrease in WD50 (naïve rats; recombinant human BDNF 20 μg intrathecal, intact rats) [h] | Eanion of LI neurons vs control untreated slices (LI neurons [3])
1 | Nc1ncnc2c1ncn2[C@@H]1O[C@H](COP(=O)(O)OP(=O)(O)OP(=O)(O)O)[C@@H](O)[C@H]1O [ATP] | caused release of BDNF |  |  |  |  |  | 
2 | TNP-ATP | blocked | reverse nerve injury-induced tactile allodynia | −59.3±1.8 |  |  |  | 
3 | BDNF: brain-derived neurotrophic factor; recombinant human BDNF delivered intrathecally or bath-applied (protein, listed as Homo sapiens) MTILFLTMVISYFGCMKAAPMKEANIRGQGGLAYPGVRTHGTLESVNGPKAGSRGLTSLADTFEHVIEELLDEDQKVRPNEENNKDADLYTSRVMLSSQVPLEPPLLFLLEEYKNYLDAANMSMRVRRHSDPARRGELSVCDSISEWVTAADKKTAVDMSGGTVTVLEKVPVSKGQLKQYFYETKCNPMGYTKEGCRGIDKRHWNSQCRTTQSYVRALTMDSKKRIGWRFIRIDTSCVCTLTIKRGR |  |  |  | decrease in paw withdrawal threshold | significant and transient decrease in the WD50 | ≤ 1 | significantly less negative
